The series can be described thus: Relaxivity measurements at 1.4 T. The note with it: 1.41 T (60 MHz), 37°C, normalized to Mn. The class given is physicochemical. The method, then:
T1 and T2 relaxation time were measured at 60 MHz (1.41 T) and 37°C using a Bruker mq60 minispec contrast agent analyzer. Manganese containing chelates were dissolved in different media at and each relaxivity measurement was performed using three different Mn concentrations. Measurement of r1 and r2 relaxivities were performed using concentrations of 0, 0.25, 0.5 and 1mM Mn in water and human plasma containing heparin as anticoagulant. The relaxivities ri (where i=1, 2) were calculated based on the measured relaxation rates Ri in water and plasma: ri = (Ri−Ri(0))/CMn [formula] where Ri(0) represent the relaxation rate of the respective solvent and CMn the concentration of the compound normalized to Manganese. The Manganese concentrations of the investigated solutions were verified by Inductively Coupled Plasma Mass Spectrometry (ICP-MS Agilent 7500a, Waldbronn, Germany). Table 1: Relaxivities of investigated compound in water and human plasma at 1.41 T. All values are measured at 37°C and normalized to Mn and given in L mmol-1 s-1.

`O=C(CCC(C(=O)[O-])N1CCOCCN(C(CCC(=O)NC[C@H](O)[C@@H](O)[C@H](O)[C@H](O)CO)C(=O)[O-])Cc2cccc(n2)C1)NC[C@H](O)[C@@H](O)[C@H](O)[C@H](O)CO.[Mn+2]` (stereo partly drawn) [Example 2, manganese(^2+) 2-[9-(1-carboxylato-4-oxo-4-{[(2S,3R,4R,5R)-2,3,4,5,6-pentahydroxyhexyl]amino}butyl)-6-oxa-3,9,15-triazabicyclo[9.3.1]pentadeca-1(15),11,13-trien-3-yl]-5-oxo-5-{[(2S,3R,4R,5R)-2,3,4,5,6-pentahydroxyhexyl]amino}pentanoate]: the r1 was found to be 6.4 L mM^-1s^-1 (human plasma (heparin as anticoagulant)) and 5.0 L mM^-1s^-1 (water).

Source of the values: patent EP4464708A1, “NEW CONTRAST AGENTS FOR USE IN DIAGNOSTIC IMAGING” (Bayer Aktiengesellschaft, priority 2023, dated 2024).
